Measured values taken from ChEMBL document CHEMBL1201862, “PubChem BioAssay data set” (2004).
Active and inactive are the calls of the source.

Key:
[1] = inhibition of ADAM10 peptide cleavage – biochemical, FRET peptide substrate, recombinant human ADAM10, selectivity assay for ADAM17 exosite inhibitor project, dose response (AID 743259);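 also: ADAM10 enzyme cleaving a FRET peptide substrate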
[2] = biological target: T1, Disintegrin and metalloproteinase domain-containing protein 17 (Homo sapiens, UniProt P78536); assay: exosite inhibitors of ADAM17, dose response, biochemical (AID 743260)
[3] = potency of ADAM10 substrate cleavage blockers – biochemical, QFRET, dose response (AID 743254);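 also: ADAM10 enzyme with the DM2 quenched FRET peptide as substrate; EDANS fluorescence gain as the protease cuts the substrate; inhibitor potency against ADAM10 proteolytic activity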
[4] = biological target: Induced myeloid leukemia cell differentiation protein Mcl-1 (Homo sapiens, UniProt Q07820); type: functional
[5] = biological target: T1, Disintegrin and metalloproteinase domain-containing protein 17; assay: inhibition of ADAM17 substrate cleavage – biochemical, quenched FRET substrate, counter-screen for ADAM10 exosite inhibitor project, dose response (AID 743253)
Caspase-6 = Caspase-6 (Homo sapiens, UniProt P55212); assay: inhibition of CASP6 peptide cleavage – biochemical, VEID-R110 fluorescence, cherry-pick, dose response (AID 720632)
[6] = biological target: COUP transcription factor 2 (Homo sapiens, UniProt P24468); assay: Luminescence-based cell-based high throughput dose response assay to identify inhibitors of COUP-TFII (NR2F2).; type: functional;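 also: HEK293 cells transiently cotransfected with COUP-TFII expression vector and reporter; luciferase reporter luminescence driven by COUP-TFII from the pX2-168 reporter plasmid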
[7] = loss of viability in HepG2 cells – cell-based, CellTiter-Glo, cherry-picked, cytotoxicity control for Shn3 inhibitor project, dose response (AID 624134); type: functional
[8] = reduction of Shn3 3'UTR-driven luciferase in osteoblasts – cell-based, Clone20 osteoblasts, firefly luciferase, cherry-picked, dose response (AID 624132); type: functional;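 also: firefly luciferase luminescence from reporter carrying the Shn3 3'UTR in osteoblasts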
INS1 = assay: INS-1E survival protection against cytokine death – cell-based, luminescence, retest, dose response (AID 449756); type: functional; conditions: Rattus norvegicus;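 also: cell death triggered by IL-1 beta plus TNF-alpha plus IFN-gamma mixture; protective hits raise ATP signal compared with cytokine alone wells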
[9] = non-specific 3'UTR reporter inhibition in Clone20-Shn3RL – cell-based, Renilla luciferase, cherry-picked, counter-screen for Shn3 inhibitor project, dose response (AID 624133); type: functional
[10] = biological target: Tyrosyl-DNA phosphodiesterase 2 (Homo sapiens, UniProt O95551); assay: potency against TDP2 phosphodiesterase activity – biochemical, epi absorbance, IC50, dose response (AID 743297)
[11] = biological target: T2, Sentrin-specific protease 8 (Homo sapiens, UniProt Q96LD8); type: functional
T2 sequence (Q96LD8 whole entry): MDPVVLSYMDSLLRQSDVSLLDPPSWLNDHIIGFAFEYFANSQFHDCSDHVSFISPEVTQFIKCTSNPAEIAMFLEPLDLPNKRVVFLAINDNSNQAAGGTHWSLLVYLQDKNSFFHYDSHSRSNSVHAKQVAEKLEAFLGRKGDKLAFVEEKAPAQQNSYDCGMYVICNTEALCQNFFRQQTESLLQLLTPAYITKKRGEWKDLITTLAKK

[12] = biological target: T2, Sentrin-specific protease 8; type: functional; remark: listed apart in the source
cells [13] = type: functional, cell-based
[14] = biological target: T3, Trace amine-associated receptor 1 (Homo sapiens, UniProt Q96RJ0); assay: Fluorescence-based cell-based high throughput dose response assay to identify agonists of the human trace amine associated receptor 1 (TAAR1).; type: functional
T3 sequence (Q96RJ0 whole entry): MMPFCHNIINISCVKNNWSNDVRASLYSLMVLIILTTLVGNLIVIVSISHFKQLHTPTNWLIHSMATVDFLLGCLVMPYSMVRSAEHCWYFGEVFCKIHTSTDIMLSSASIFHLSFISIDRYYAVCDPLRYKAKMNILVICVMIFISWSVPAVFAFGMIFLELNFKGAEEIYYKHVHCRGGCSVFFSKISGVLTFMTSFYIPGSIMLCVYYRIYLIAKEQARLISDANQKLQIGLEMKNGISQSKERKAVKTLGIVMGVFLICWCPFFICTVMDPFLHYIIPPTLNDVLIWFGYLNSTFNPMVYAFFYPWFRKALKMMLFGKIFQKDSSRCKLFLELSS

cells [15] = type: functional, cell-based; remark: listed apart in the source
[16] = biological target: T3, Trace amine-associated receptor 1; assay: Counterscreen for agonists of the human trace amine associated receptor 1 (hTAAR1): Fluorescence-based cell-based high throughput dose response assay to identify hTAAR1 agonist that also desensitize TAAR1 receptor response.; type: functional
Paired box protein Pax-8 = Paired box protein Pax-8 (Homo sapiens, UniProt Q06710); assay: PAX8 transcriptional activity inhibition in RMG-I – RMG-I cells, luciferase, cherry-pick, dose response (AID 687027); type: functional, cell-based;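 also: luciferase reporter driven by Pax8 target thyroperoxidase promoter measured by SteadyGlo luminescence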
[17] = reduced cellular PGC1a acetyl-lysine signal – cell-based, cherry-picked samples, dose response (AID 720514); type: functional;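 also: potency may reflect raised or lowered acetylation signal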
[18] = biological target: Hepatocyte nuclear factor 4-alpha (Homo sapiens, UniProt P41235); type: functional, cell-based;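 also: biochemical luminescence-based dose-response counterscreen measuring inhibition of HNF4 dimerization, run alongside a screen for blockers of ABHD5–perilipin-5 interaction; split luciferase complementation of HNF4 fusion proteins in cell lysate measuring dimerization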
HEK293 [19] = assay: NOD2 signaling inhibitors in MDP-stimulated cells, cell-based, uHTS, luminescence (AID 2001); type: functional; conditions: Homo sapiens
HEK293 [20] = assay: cells; type: functional, cell-based; conditions: Homo sapiens
HEK293 [21] = assay: cells; type: functional, cell-based; conditions: Homo sapiens; remark: listed apart in the source
HEK293 [22] = assay: inhibition of NOD1-driven NF-kB reporter – cell-based, luminescence, uHTS, primary screen (AID 1578); type: functional; conditions: Homo sapiens
Major prion protein = Major prion protein (Homo sapiens, UniProt P04156); type: functional, cell-based
cells [23] = assay: cells

For c1ccc(-n2c(SCc3cccc4ccccc34)nnc2-c2ccccn2)cc1, the IC50 [1] was 24.1 µM (inactive) and the IC50 [2] was > 69.4 µM (inactive).
With CN(C)c1ccc(NC(=O)c2cn(-c3ccccc3)nc2-c2cccs2)cc1 the IC50 [3] was > 69.5 µM (inactive), the IC50 [4] was 2.48 µM (not active) and the IC50 [5] was > 69.5 µM (inactive).
In the case of O=C(O)CCCC(=O)OCCCc1cc2ccccc2c(=O)o1, the AC50 (Caspase-6) is reported as 1.51 µM (active).
For Cc1ccc(C(=O)NC2CCCc3c2cnn3-c2ccc(F)cc2F)cn1 (centres undefined), the IC50 [6] was 3.66 µM (active), the AC50 [7] was 2.34 µM (active) and the AC50 [8] was 0.921 µM (active). The AC50 (INS1) was 4.93 µM (active) and the AC50 [9] was 6.81 µM (active).
In the case of Cc1ccc(C(=O)Nc2c(-c3ccc(Cl)cc3)n[nH]c2O)cc1, the IC50 [10] is reported as > 128 µM (inactive), the IC50 [11] is reported as 63.5 µM (inactive) and the IC50 [12] is reported as 39.9 µM (active).
For Cc1nn(CC(=O)N/N=C/c2cccs2)c(C)c1[N+](=O)[O-], the EC50 (cells [13]) was > 29.9 µM (inactive), the EC50 [14] was 2.82 µM (active) and the IC50 (cells [15]) was > 29.9 µM (inactive). The IC50 [16] was > 29.9 µM (inactive).
In the case of C#CCN(C[C@@H]1[C@@H](OC(=O)NCC2CCCCC2)[C@@H](OC(=O)NCC2CCCCC2)Cn2c(=O)ccc(=O)n21)S(=O)(=O)c1ccc(C)cc1, the AC50 [7] is reported as 6.53 µM (active), the AC50 (Paired box protein Pax-8) is reported as 3.03 µM (active) and the AC50 [8] is reported as 2.49 µM (active). The AC50 [17] was 1.65 µM (active), the IC50 [18] was 29.3 µM (inactive) and the AC50 [9] was 3.96 µM (active).
For CCN(CC)S(=O)(=O)c1cccc(NC(=O)CNc2cccc(S(=O)(=O)N3CCCC3)c2)c1, the IC50 [6] was 3.33 µM (active), the AC50 [7] was 1.11 µM (active) and the IC50 (HEK293 [19]) was 3.47 µM (active). The AC50 [8] was 0.317 µM (active), the IC50 (HEK293 [20]) was 2.55 µM (active) and the IC50 (HEK293 [21]) was 14.6 µM (active). The AC50 (INS1) was 3.73 µM (active), the EC50 (HEK293 [22]) was 0.56 µM (active) and the AC50 [9] was 33.8 µM (active).
With COc1ccc(NC(=O)NNC(=O)COc2ccc3cc(Br)ccc3c2)cc1OC the IC50 (Major prion protein) was 5.33 µM (active) and the IC50 (cells [23]) was > 138 µM (inactive).
With Cn1cccc1CNCCc1ccc(F)cc1 the EC50 (cells [13]) was > 29.9 µM (inactive), the EC50 [14] was 6.31 µM (active) and the IC50 (cells [15]) was > 29.9 µM (inactive). For the same compound, the IC50 [16] was 20 µM (inactive).
